Measured values reported in US11964955B2, “Mixtures of cannabinoid compounds, and production and use thereof” (priority 2015, dated 2024).
Entries after “also recorded” stand apart in the source; their conditions may differ. Read-outs that look alike come from different tables or passages of the source.

Experiments:
CB2 receptor [1] = conditions: Pertwee et al. Pharmacol. Rev. 2010; read-out: CB2 affinity (dissociation constant) listed in the literature; cited from earlier work
CB2 receptor [2] = target: T1, CB2 receptor (Homo sapiens, UniProt P34972); assay: Signal transmission (CRE-luciferase, forskolin) in CHO-CB2-CREluc cells, agonism; conditions: for Functional effect at the CB2 receptor (in words): FIGS. 2 and 3
T1 sequence (P34972 whole entry): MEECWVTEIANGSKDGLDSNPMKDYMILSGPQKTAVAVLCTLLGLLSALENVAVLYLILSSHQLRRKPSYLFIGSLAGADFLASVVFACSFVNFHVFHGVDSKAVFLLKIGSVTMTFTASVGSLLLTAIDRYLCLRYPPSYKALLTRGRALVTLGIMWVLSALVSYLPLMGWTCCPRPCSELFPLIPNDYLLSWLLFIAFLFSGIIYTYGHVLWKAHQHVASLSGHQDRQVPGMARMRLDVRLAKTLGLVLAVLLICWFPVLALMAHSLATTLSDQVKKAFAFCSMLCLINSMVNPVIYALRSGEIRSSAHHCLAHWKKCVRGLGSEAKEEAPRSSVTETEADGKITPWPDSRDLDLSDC

CB1 receptor [3] = target: T2, CB1 receptor (Homo sapiens, UniProt P21554); assay: Signal transmission (CRE-luciferase) in CHO-CB1-CREluc cells, agonism and antagonism versus WIN; conditions: for Functional effect at the CB1 receptor (in words): text and FIGS. 4 to 6
T2 sequence (P21554 whole entry): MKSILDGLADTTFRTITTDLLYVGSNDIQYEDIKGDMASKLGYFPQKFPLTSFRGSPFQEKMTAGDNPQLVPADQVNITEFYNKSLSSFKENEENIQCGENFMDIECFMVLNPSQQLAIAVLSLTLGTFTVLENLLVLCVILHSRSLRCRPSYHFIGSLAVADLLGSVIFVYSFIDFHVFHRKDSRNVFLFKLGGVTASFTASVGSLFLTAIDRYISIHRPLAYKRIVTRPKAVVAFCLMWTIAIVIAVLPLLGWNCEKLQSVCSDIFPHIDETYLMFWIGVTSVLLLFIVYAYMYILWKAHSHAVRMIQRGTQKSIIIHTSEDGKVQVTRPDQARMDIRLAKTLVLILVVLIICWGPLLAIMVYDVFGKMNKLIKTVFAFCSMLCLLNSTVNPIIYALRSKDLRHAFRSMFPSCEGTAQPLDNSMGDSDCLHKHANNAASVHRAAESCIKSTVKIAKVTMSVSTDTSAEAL

CB2 receptor [4] = target: T1, CB2 receptor; assay: Competition binding study with [3H]-CP55940 on membranes of CB2-transfected human cells; set-up: purchased RBXCB2M400UA; conditions: for Ki: mean +/- SEM, [3H]-CP55940 0.15 nM, triplicates; for Selectivity for CB2 compared to CB1 (fold): ratio of Ki CB1 to Ki CB2; for CB2 (% Binding): screening with a single high dose, displacement of [3H]-CP55940 0.15 nM
CB1 receptor [5] = target: T2, CB1 receptor; assay: biochemical; assay type: binding; set-up: purchased RBHCB1M400UA

## C=C(C)[C@@H]1CCC(C)C=C1c1c(O)cc(CCC)c(C(=O)OC2CCCCC2)c1O (stereo partly shown) [CHCBDV, cyclohexylcannabidivarinolat]
CB2 receptor [2]
  Agonism and antagonism at CB2: ++
  Functional effect at the CB2 receptor (in words): CB1 and CB2 agonist; also recorded: Dose-dependent agonism
CB1 receptor [3]
  Agonism and antagonism at CB1: ++
  Functional effect at the CB1 receptor (in words): CB1 and CB2 agonist; also recorded: Dose-dependent agonism
CB2 receptor [4]
  Binding to CB2 receptor (in words): strong binding to the receptors within the lower nanomolar range
  Ki: 4.62 ± 0.46 nM
  Selectivity for CB2 compared to CB1 (fold): 2.9 fold
  CB2 (% Binding): 99.9% (n = 3)
CB1 receptor [5]
  Binding to CB1 receptor (in words): strong binding to the receptors within the lower nanomolar range
  CB1 (% Binding): 82.4% (n = 4)
  Ki: 13.2 ± 0.85 nM

## C=C(C)[C@@H]1CCC(C)C=C1c1c(O)cc(CCC)c(C(=O)OCCCCCC)c1O (stereo partly shown) [HCBDV, hexylcannabidivarinolat]
CB2 receptor [2]
  Agonism and antagonism at CB2: 0
CB1 receptor [3]
  Agonism and antagonism at CB1: ++
  Functional effect at the CB1 receptor (in words): selective activation of CB1 receptors; also recorded: Dose-dependent agonism
CB2 receptor [4]
  Binding to CB2 receptor (in words): strong binding to the receptors within the lower nanomolar range
  Ki: 9.91 ± 2.46 nM
  Selectivity for CB2 compared to CB1 (fold): 0.8 fold
  CB2 (% Binding): 98.5% (n = 3)
CB1 receptor [5]
  Binding to CB1 receptor (in words): strong binding to the receptors within the lower nanomolar range
  CB1 (% Binding): 91.1% (n = 4)
  Ki: 8.28 ± 0.69 nM

## C=C(C)[C@@H]1CCC(C)=C[C@H]1c1c(O)cc(CCC)c(C(=O)OCCO)c1O [HECBDV, 2-hydroxyethylcannabidivarinolat]
CB2 receptor [2]
  Agonism and antagonism at CB2: ++
  Functional effect at the CB2 receptor (in words): selective agonist; also recorded: Dose-dependent agonism
CB1 receptor [3]
  Agonism and antagonism at CB1: −
  Functional effect at the CB1 receptor (in words): inhibited; also recorded: Dose-dependent antagonism
CB2 receptor [4]
  Ki: 168 ± 39.4 nM
  Selectivity for CB2 compared to CB1 (fold): 33.6 fold
  CB2 (% Binding): 95.0% (n = 3)
CB1 receptor [5]
  CB1 (% Binding): 43.3% (n = 5)
CB1 receptor [5]; read-out: Ki for CB1
  Ki: 5650 ± 3900 nM
